Measured values taken from BigSolDB 2.1.

Cc1nc(C)c(C)nc1C
solubility (mole fraction)
Conditions	in acetone	in acetonitrile	in ethanol	in ethyl acetate	in isopropanol	in methanol	in methyl acetate	in n-butanol	in n-propanol
273.15 K	0.0459	0.0279	0.0644	0.0958	0.0534	0.111	0.0758	0.106	0.102
278.15 K	0.0592	0.034	0.0775	0.113	0.0702	0.119	0.094	0.126	0.114
283.15 K	0.0712	0.0405	0.0911	0.136	0.0814	0.143	0.112	0.152	0.138
288.15 K	0.0869	0.0503	0.11	0.16	0.0998	0.162	0.133	0.175	0.158
293.15 K	0.106	0.0587	0.128	0.181	0.115	0.194	0.156	0.205	0.185
298.15 K	0.132	0.0743	0.162	0.212	0.142	0.222	0.189	0.235	0.213
303.15 K	0.156	0.0888	0.186	0.244	0.166	0.262	0.216	0.262	0.245
308.15 K	0.185	0.115	0.216	0.284	0.196	0.296	0.254	0.302	0.3
313.15 K	0.209	0.147	0.255	0.34	0.249	0.342	0.291	0.351	0.347
